# Test results taken from ChEMBL document CHEMBL1142732, “In-depth study of tripeptide-based alpha-ketoheterocycles as inhibitors of thrombin. Effective utilization of the S1' subsite and its implications to structure-based drug design” (J Med Chem, 2005).
# What was measured:
# Prothrombin [1] = biological target: T1, Prothrombin (Homo sapiens, UniProt P00734); test: Inhibitory concentration against human alpha thrombin
# Prothrombin [2] = biological target: T1, Prothrombin; test: Binding affinity determined against human alpha thrombin
# Serine protease 1 = biological target: T2, Serine protease 1 (Bos taurus, UniProt P00760); test: Binding affinity against bovine trypsin
# T2 sequence (P00760 whole entry): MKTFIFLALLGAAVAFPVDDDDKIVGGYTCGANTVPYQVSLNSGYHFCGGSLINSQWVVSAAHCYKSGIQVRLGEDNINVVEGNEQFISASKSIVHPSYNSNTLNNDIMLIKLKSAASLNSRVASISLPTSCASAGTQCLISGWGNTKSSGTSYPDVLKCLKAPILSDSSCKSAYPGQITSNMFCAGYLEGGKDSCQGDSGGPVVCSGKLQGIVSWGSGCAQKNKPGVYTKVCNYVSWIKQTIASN
# Cavia porcellus = test: Percent change in blood pressure in guinea pig at 3 mg/kg dose
# Homo sapiens = species on record: Homo sapiens; test: Inhibitory concentration against gel filtered platelet aggregation induced by alpha thrombin; assay type: functional
Structure (SMILES),IC50 (Prothrombin [1]) [nM],Ki (Prothrombin [2]) [nM],Ki (Serine protease 1) [nM],Delta BP (Cavia porcellus) [%],IC50 (Homo sapiens) [nM]
CN[C@H](Cc1ccccc1)C(=O)N1CCC[C@H]1C(=O)N[C@H](CCCN=C(N)N)C(=O)c1nc2ccccc2s1,80,17,–,–,–
CC(=O)N1CCC[C@H]1C(=O)NC(CCCN=C(N)N)C(=O)c1nc2ccccc2s1 (some centres undefined),14000,–,–,–,–
NC(N)=NCCCC(NC=O)C(=O)c1nc2ccccc2s1 (centres undefined),> 50000,–,1300,–,–
CN[C@H](Cc1ccccc1)C(=O)N1CCC[C@H]1C(=O)NC(CCCN=C(N)N)C(=O)c1nc2ccccc2o1 (some centres undefined),110,6.2,13,–,–
CCOC(=O)c1csc(C(=O)C(CCCN=C(N)N)NC(=O)[C@@H]2CCCN2C(=O)[C@@H](Cc2ccccc2)NC)n1 (some centres undefined),120,4.5,5.4,–,–
CN[C@H](Cc1ccc(F)cc1)C(=O)N1CCC[C@H]1C(=O)NC(CCCN=C(N)N)C(=O)c1nc2ccccc2s1 (some centres undefined),15,0.12,3,–,–
CN[C@H](Cc1ccccc1)C(=O)N1CCC[C@H]1C(=O)NC(CCCN=C(N)N)C(=O)c1nc2ccc(OC)cc2s1 (some centres undefined),–,–,2,-44,–
CN[C@H](Cc1ccccc1)C(=O)N1CCC[C@H]1C(=O)N(C)[C@@H](CCCN=C(N)N)C(=O)c1nc2ccccc2s1,21000,2100,5300,–,–
CN[C@H](Cc1ccccc1)C(=O)N1CCC[C@H]1C(=O)N[C@H](CCCCN)C(=O)c1nc2ccccc2s1,–,210,20,-41,–
CN[C@H](Cc1ccccc1)C(=O)N1CCC[C@H]1C(=O)NC(CCCN=C(N)N)C(=O)c1nc2ccc(O)cc2s1 (some centres undefined),–,–,–,-34,–
CN[C@H](Cc1ccccc1)C(=O)N1CCC[C@H]1C(=O)NC(CCCN=C(N)N)C(=O)c1nc(C(=O)O)cs1 (some centres undefined),112,9.1,6,–,–
CN[C@H](Cc1ccccc1)C(=O)N1CCC[C@H]1C(=O)NC(CCCN=C(N)N)C(=O)c1nc(C(=O)NCCc2ccccc2)cs1 (some centres undefined),830,120,5,–,–
CN[C@H](Cc1ccccc1)C(=O)N1CCC[C@H]1C(=O)N[C@@H](CCCOC)C(=O)c1nc2ccccc2s1,46000,3900,12000,–,–
CN[C@H](Cc1ccccc1)C(=O)N1CCC[C@H]1C(=O)N[C@H](Cc1cccc(C(=N)N)c1)C(=O)c1nc2ccccc2s1,370,15,2600,–,–
CNC1(C(=O)N2CCC[C@H]2C(=O)NC(CCCN=C(N)N)C(=O)c2nc3ccccc3s2)CCCCC1 (some centres undefined),490,73,2.6,–,–
CN[C@H](Cc1ccccc1)C(=O)N1CCC[C@H]1C(=O)NC(CCCN=C(N)N)C(=O)c1cc2ccccc2s1 (some centres undefined),13000,2400,1300,–,–
NC(N)=NCCCC(NC(=O)[C@@H]1CCCN1)C(=O)c1nc2ccccc2s1 (some centres undefined),–,–,250,–,–
CN[C@H](Cc1ccccc1)C(=O)N1CCC[C@H]1C(=O)N[C@@H](C[C@H]1CCCN(C(=N)N)C1)C(=O)c1nc2ccccc2s1,1000,99,210,–,–
CCCC(CCC)C(=O)N[C@@H](CC(=O)OC)C(=O)N1CCC[C@H]1C(=O)N[C@@H](CCCNC(=N)N)C(=O)c1nc2ccccc2s1,56,1.4,16,–,16
CN[C@H](Cc1ccccc1)C(=O)N1CCC[C@H]1C(=O)N[C@H](C(=O)c1nc2ccccc2s1)[C@H]1CC[C@H](CN)CC1,17000,920,54,–,–
CN[C@H](Cc1ccccc1)C(=O)N1CCC[C@H]1C(=O)N[C@@H](CCCNC(=N)N)C(=O)c1nccs1,19,–,1.2,–,–
CNC(C(=O)N1CCC[C@H]1C(=O)NC(CCCN=C(N)N)C(=O)c1nc2ccccc2s1)(c1ccccc1)c1ccccc1 (some centres undefined),15,2.1,1.8,–,–
Cc1cccc(C(C)(C)CN(CC(=O)N[C@@H](CCCN=C(N)N)C(=O)c2nc3ccccc3s2)C(=O)CCc2ccccc2)c1,4000,400,57,–,–

Structure (SMILES),IC50 (Prothrombin [1]) [nM],Ki (Prothrombin [2]) [nM],Ki (Serine protease 1) [nM],Delta BP (Cavia porcellus) [%],IC50 (Homo sapiens) [nM]
N=C(N)NCCCC(NC(=O)C1CCCC1)C(=O)c1nc2ccccc2s1 (centres undefined),–,–,30,–,–
CN[C@H](Cc1c(F)c(F)c(F)c(F)c1F)C(=O)N1CCC[C@H]1C(=O)NC(CCCN=C(N)N)C(=O)c1nc2ccccc2s1 (some centres undefined),150,3.8,9.3,–,–
CN[C@H](Cc1ccccc1)C(=O)N1CCCC[C@H]1C(=O)NC(CCCN=C(N)N)C(=O)c1nc2ccccc2s1 (some centres undefined),38,0.34,1.8,-45,10
CN[C@@H](C(=O)N1CCC[C@H]1C(=O)NC(CCCN=C(N)N)C(=O)c1nc2ccccc2s1)C1CCCCC1 (some centres undefined),5.3,–,1.2,-21,17
CN[C@H](Cc1ccccc1)C(=O)N1CCC[C@H]1C(=O)N[C@@H](C[C@@H]1CCCN(C(=N)N)C1)C(=O)c1nc2ccccc2s1,51,1.6,8,–,–
CC(=O)N[C@H](Cc1ccccc1)C(=O)N1CCC[C@H]1C(=O)NC(CCCN=C(N)N)C(=O)c1nc2ccccc2s1 (some centres undefined),430,–,2.4,–,–
CN[C@H](Cc1ccccc1)C(=O)N1CCC[C@H]1C(=O)N[C@@H](Cc1cccc(C(=N)N)c1)C(=O)c1nc2ccccc2s1,–,0.99,1.8,–,–
C[C@@](N)(Cc1ccccc1)C(=O)N1CCC[C@H]1C(=O)NC(CCCN=C(N)N)C(=O)c1nc2ccccc2s1 (some centres undefined),–,–,3.9,–,–
CN[C@H](Cc1ccccc1)C(=O)N1CCC[C@H]1C(=O)NC(CCCN=C(N)N)C(=O)c1nc2ccccc2c(=O)[nH]1 (some centres undefined),106,15,8.3,–,–
CCS(=O)(=O)N[C@H](Cc1ccccc1)C(=O)N1CCC[C@H]1C(=O)NC(C(=O)c1nc2ccccc2s1)C1CCC(N)CC1 (some centres undefined),460,53,87,–,120
CN[C@H](Cc1ccccc1)C(=O)N1CCC[C@H]1C(=O)NC(CCCN=C(N)N)C(=O)c1nc2ccccc2n1C (some centres undefined),110,8.1,290,-30,59
CN[C@H](CC1CCCCC1)C(=O)N1CCC[C@H]1C(=O)NC(CCCN=C(N)N)C(=O)c1nc2ccccc2s1 (some centres undefined),–,–,3.9,-49,28
CN[C@@H](C(=O)N1CCC[C@H]1C(=O)NC(CCCN=C(N)N)C(=O)c1nc2ccccc2s1)c1ccccc1 (some centres undefined),34,0.46,–,-63,17
CN[C@H](Cc1ccccc1)C(=O)N1CCC[C@H]1C(=O)NC(CCCN=C(N)N)C(=O)c1nc2ccc(CO)cc2s1 (some centres undefined),–,–,5.3,–,–
CN[C@H](Cc1ccccc1)C(=O)N1CCC[C@H]1C(=O)N[C@@H](CCCCN)C(=O)c1nc2ccccc2s1,650,38,4.3,-45,–
CN[C@H](Cc1ccccc1)C(=O)N1CCC[C@H]1C(=O)N[C@@H](CCCNC(=N)N)C(=O)c1ccccn1,930,–,–,–,–
CN[C@H](Cc1ccccc1)C(=O)N1CCC[C@H]1C(=O)NC(CCCN=C(N)N)C(=O)c1nc2ccccc2[nH]1 (some centres undefined),360,9.6,12,–,–
CN[C@H](Cc1ccccc1)C(=O)N1CCC[C@H]1C(=O)N[C@H](C[C@H]1CCCN(C(=N)N)C1)C(=O)c1nc2ccccc2s1,–,380,540,–,–
CN[C@H](Cc1ccccc1)C(=O)N1CCC[C@H]1C(=O)NC(CCCN=C(N)N)C(=O)c1nc2ccc(F)cc2s1 (some centres undefined),–,–,1.5,–,–
CN[C@H](Cc1ccccc1)C(=O)N1CCC[C@H]1C(=O)N[C@H](C=O)CCCN=C(N)N (stereo in doubt),–,18,–,–,–
CN[C@H](Cc1ccccc1)C(=O)N1CCC[C@H]1C(=O)N[C@@H](CCCN=C(N)N)C(O)c1nc2ccccc2s1 (stereo in doubt; form 1),48000,5300,180000,–,–
CN[C@H](Cc1ccccc1)C(=O)N1CCC[C@H]1C(=O)N[C@@H](CCCN=C(N)N)C(O)c1nc2ccccc2s1 (stereo in doubt; form 2),17000,1600,250000,–,–
